Where two headings read alike, the source gives them in different places.
What was measured:
[1] = Flowability test (particle and powder characteristic analyzer, FT-102D); format: physicochemical
Excerpt: (§1) Example 4. Particle Size Parameters and Powder Characteristics (Quantity Distribution) of L-Arabinose
Example 13. Performance Test Results for the Granules of the Present Disclosure

[2] = Particle size parameter test (BT-2900 image particle size analysis system); format: physicochemical; settings: for Average particle size / D10 / D50 / D90: quantity distribution, image particle size analysis
Excerpt: as §1

Humans = test: Bowel preparation in humans; format: in vivo
Method: Administration Sample: L-Arabinose Prepared in Example 1 Subject: weighing 73 kg Administration Regimen: The subject drank water normally on an empty stomach after getting up in the morning. At 10:06, the subject dissolved 30 g of L-arabinose in about 100-150 mL of mineral water and consumed the solution in about 5 min.

SPF mice = test: Bowel preparation in mice; format: in vivo
Method: 5.1 Experimental animals and feeding thereof: SPF (Specific pathogen free) mice, 6 weeks old; normal feed was D12450-B feed: 67.35 wt % carbohydrates, 19.2 wt % crude protein, 4.3 wt % fat. The temperature of the room was kept at 24-26° C. with humidity at 40-60%.
5.2 Experimental method and procedure:
The SPF mice were randomly divided into a blank control group, a positive control group and a treatment group, 20 mice per group, half being male and half female. Administration method: Animals in each group were fasted (water was accessible) from last 22:00 before the day of experiment, were each given ⅓ the calculated amount of drug by intragastrical administration at 7:00, 9:00 and 11:00 on the day of experiment, were each given 0.1 mL of purified water at 12:00, 13:00 and 14:00, and were dissected 3.5 h after the last administration.

[3] = Granularity distribution of sample (standard sieve); format: physicochemical; settings: for Granularity distribution of sample (standard sieve) 20-80 mesh / Granularity distribution of sample (standard sieve) <80 mesh / Granularity distribution of sample (standard sieve) >20 mesh: Example 8 samples, seed crystal specification and fed-batch time varied
Method: 1 kg of L-arabinose starting material was dissolved in 1.2 kg of purified water at 60° C. After the solution was completely clear, 1 g of activated carbon ([…] of the L-arabinose) was added. The mixture was incubated at 60° C. for 30 min and then subjected to suction filtration under vacuum successively through 25 μm and 0.45 μm filter membranes to remove the activated carbon, and a clear filtered sugar liquid (about 1800 mL in volume) was obtained. About 800 mL of the clear filtered sugar liquid was added to a three-necked flask, and stirred and evaporated under reduced pressure in a water bath set at a temperature of 62° C. until the sugar degree reached 58-60% Brix. A proper amount of L-arabinose was added as seed crystals (as shown in Table 8-1 below, seed crystal with different specifications was selected: 40-60 mesh, 16.5 g; 60-80 mesh, 6 g; 80-100 mesh, 1.5 g). The mixture was stirred (double-layered type of stirring, with two-half-crescent type for the lower layer and three-bladed propeller type for the upper layer) at a rate of 90-110 rpm until the seed crystal was completely dispersed. Then the sugar liquid was added at a rate of 50-100 mL/h in a fed-batch manner for a time period of 12/18 h. After the fed-batch addition was completed, the concentrating was continued for 1-2 h. It was about 14 h from the time the seed crystal was added to the time of discharging.
According to the results shown in Table 8-1, the specific surface area of the seed crystal of 80-100 mesh is relatively […] compared with that of the seed crystal of other specifications (as shown in Table 8-2), but the particle size distribution of the sample obtained by experiment is relatively uniform: the proportion of 20-80 mesh is more than 89.7%, and the maximum proportion is more than 90%, which fully complies with the requirements of the existing pharmacopoeia (Chinese pharmacopoeia (2020)) for granules: granules cannot pass through a No. 1 sieve (10 mesh, 2000 μm) and the total quantity of granules which can pass through a No. 5 sieve (80 mesh, pore size of […]) should not exceed 15%.

[4] = listed as Example 10 sample of batch 1ª
[5] = post-centrifugation sampling-manual material spreading and drying oven drying
[6] = screw feeding-back-mixing bed drying
[7] = listed as Example 10 sample of batch 2ª

SMILES | Bulk density [1] | Carr flowability index [1] | Compressibility [1] | Floodability index [1] | Flowability (Hausner ratio) [1] | Hausner ratio [1] | Tap density [1] | Average particle size [2] | D10 [2] | D50 [2] | D90 [2] | Granularity distribution of sample (standard sieve) 20-80 mesh [3] | Granularity distribution of sample (standard sieve) <80 mesh [3] | Granularity distribution of sample (standard sieve) >20 mesh [3] | Angle of repose [1] | 20-80 mesh proportion of sample [3, 5] | other results
O[C@@H]1[C@@H](O)[C@@H](O)CO[C@H]1O [Commercial product (T1)] | 0.55 g/mL | 79 | 40.2% | 75 | Very poor | 1.7 | 0.93 g/mL | 75 μm | 27 μm | 63 μm | 137 μm | – | – | – | – | – | Angle of repose ([1]; in ° (unit assumed)): 51.05
O[C@@H]1[C@@H](O)[C@@H](O)CO[C@H]1O [Commercial product (Y1)] | 0.5 g/mL | 79 | 41.4% | 75 | Very poor | 1.7 | 0.85 g/mL | 33 μm | 11 μm | 30 μm | 63 μm | – | – | – | – | – | Angle of repose ([1]; in ° (unit assumed)): 51.73
O[C@@H]1[C@@H](O)[C@@H](O)OC[C@@H]1O [Example 1, β-L-(+)-arabinose] | 0.7 g/mL | – | 17.1% | 75.0 | Good | 1.2 | 0.85 g/mL | 149 μm | 49 μm | 138 μm | 261 μm | 71.2% | 5.4% | 23.4% | – | – | Stool passed, first bathroom visit (Humans; 30 g oral, at 10:42 (dose at 10:06)): loose stool; Stool passed, second bathroom visit (Humans; 30 g oral, at 11:11): watery stool; Stool passed, third bathroom visit (Humans; 30 g oral, at 11:55): watery stool with little residue; Stool passed, fourth bathroom visit (Humans; 30 g oral, at 13:27): light yellow watery stool without residue; Time from administration to first stool (Humans; one subject, 30 g oral in 100-150 mL water): About 40 min; Angle of repose ([1]; in ° (unit assumed)): 40.01; Dosage relative to the positive control group to achieve the same effect (SPF mice; 12 g/kg vs PEG 31.5 g/kg): 38%; Residue in the rectum and colon after the dissection (SPF mice; dissected 3.5 h after the last administration, L-arabinose 12 g/kg, PEG 31.5 g/kg): no residue was left in the rectum and colon; Stools observed before the dissection (SPF mice; intragastrical, three doses, L-arabinose 12 g/kg, PEG 31.5 g/kg): Watery and loose stools; span ([2]; particle size analysis): 0.985
O=C[C@H](O)[C@@H](O)[C@@H](O)CO [Example 2, L-arabinose] | 0.6 | 102.5 | 20.6 | 75.0 | Good | 1.3 | 0.76 | 189 μm | 82 μm | 182 μm | 299 μm | 61 | 1 | 38 | 38.95 | – | –
O=C[C@H](O)[C@@H](O)[C@@H](O)CO [Example 3, L-arabinose] | 0.56 | 99 | 24.3 | 75.0 | Good | 1.2 | 0.74 | 125 μm | 43 μm | 109 μm | 232 μm | 81.6 | 1.5 | 16.9 | 38.76 | – | –
O=C[C@H](O)[C@@H](O)[C@@H](O)CO [Example 10 Sample of batch 1^b, L-arabinose] | – | – | – | – | – | – | – | 182 μm | 78 μm | 174 μm | 296 μm | – | – | – | – | – | –
O=C[C@H](O)[C@@H](O)[C@@H](O)CO [Example 10 Sample of batch 2^b, L-arabinose] | – | – | – | – | – | – | – | 189 μm | 79 μm | 168 μm | 331 μm | – | – | – | – | – | –
O=C[C@H](O)[C@@H](O)[C@@H](O)CO [Example 10 batch 1, L-arabinose] | 0.7 | – | 17.1 | 75.0 | Good | 1.2 | 0.85 | – | – | – | – | – | – | – | 40.01 | 93.0% | Average particle size [2, 4]: 134.5 μm; D10 [2, 4]: 48.4 μm; D50 [2, 4]: 125.1 μm; D90 [2, 4]: 230.6 μm; 20-80 mesh proportion of sample [3, 6]: 66.4%
O=C[C@H](O)[C@@H](O)[C@@H](O)CO [Example 10 batch 2, L-arabinose] | 0.68 | 102.5 | 15.9 | 75.0 | Good | 1.2 | 0.81 | – | – | – | – | – | – | – | 30.95 | 96.4% | Average particle size [2, 7]: 129.2 μm; D10 [2, 7]: 41.88 μm; D50 [2, 7]: 116.4 μm; D90 [2, 7]: 237.9 μm; 20-80 mesh proportion of sample [3, 6]: 79.8%
O=C[C@H](O)[C@@H](O)[C@@H](O)CO [Example 11, L-arabinose] | 0.5 | 102.0 | 23.1 | 75.0 | Acceptable | 1.3 | 0.65 | 148.8 μm | 164.8 μm | 288.1 μm | 448.8 μm | – | – | – | 34.29 | 90.6% | –
O=C[C@H](O)[C@@H](O)[C@@H](O)CO [Example 12, L-arabinose] | 0.48 | 99 | 24.4 | 75.0 | Good | 1.3 | 0.64 | 185.5 μm | 175.1 μm | 305.2 μm | 481.8 μm | – | – | – | 39.74 | 93.57% | –
O=C[C@H](O)[C@@H](O)[C@@H](O)CO [Example 14, L-arabinose] | – | – | – | – | – | – | – | – | – | – | – | – | – | – | – | 94.3% | 20-80 mesh proportion of sample ([3]; star valve unloading-back-mixing bed drying): 89%
O[C@@H]1[C@@H](O)[C@@H](O)CO[C@H]1O [No. 5] | – | – | – | – | – | – | – | – | – | – | – | 89.7% | 3% | 7.3% | – | – | –
